The text below walks through data of ChEMBL document CHEMBL5113508, “Targeting Human CD22/Siglec-2 with Dimeric Sialosides as Novel Oligosaccharide Mimetics” (J Med Chem, 2022).

Test [1] concerns the target B-cell receptor CD22 (Homo sapiens) (UniProt P20273). Kind of test: Inhibition of CD22 in human Daudi cells assessed as relative inhibitory potency in presence of biotinylated dimeric 2-(78-biotinoylamino-1,4,7,10,13,16-hexaoxa-octadecyl)-1,4-bis(2-aza-l-oxo-8-(sodium(5-acetamido-3,5,9-trideoxy-9-(4-phenylbenzamido)-D-glycero-a-D-galacto-non-2-ulopyranosyloxyonate))-5-thia-octyl) benzene preincubated for 15 mins followed by probe addition incubated for 20 mins by flow cytometric analysis relative to 1,4-bis-(2-Aza-1-oxo-8-(sodium(5-acetamido-3,5,9-trideoxy-9-(4-phenylbenzamido)-D-glycero-alpha-D-galacto-non-2-ulopyranosyloxyonate))-5-thia-octyl)benzene. Type of test: cell-based. The following applies: time 35.0 min.

Test [2] has the same target. Kind of test: Inhibition of to hFc tagged CD22 (unknown origin) assessed as relative inhibitory potency incubated for 4 hrs by ELISA relative to 1,4-bis-(2-Aza-1-oxo-8-(sodium(5-acetamido-3,5,9-trideoxy-9-(4-phenylbenzamido)-D-glycero-alpha-D-galacto-non-2-ulopyranosyloxyonate))-5-thia-octyl)benzene.
The target in another test is T1, B-cell receptor CD22 (Homo sapiens, UniProt P20273).
T1 sequence (P20273 whole entry): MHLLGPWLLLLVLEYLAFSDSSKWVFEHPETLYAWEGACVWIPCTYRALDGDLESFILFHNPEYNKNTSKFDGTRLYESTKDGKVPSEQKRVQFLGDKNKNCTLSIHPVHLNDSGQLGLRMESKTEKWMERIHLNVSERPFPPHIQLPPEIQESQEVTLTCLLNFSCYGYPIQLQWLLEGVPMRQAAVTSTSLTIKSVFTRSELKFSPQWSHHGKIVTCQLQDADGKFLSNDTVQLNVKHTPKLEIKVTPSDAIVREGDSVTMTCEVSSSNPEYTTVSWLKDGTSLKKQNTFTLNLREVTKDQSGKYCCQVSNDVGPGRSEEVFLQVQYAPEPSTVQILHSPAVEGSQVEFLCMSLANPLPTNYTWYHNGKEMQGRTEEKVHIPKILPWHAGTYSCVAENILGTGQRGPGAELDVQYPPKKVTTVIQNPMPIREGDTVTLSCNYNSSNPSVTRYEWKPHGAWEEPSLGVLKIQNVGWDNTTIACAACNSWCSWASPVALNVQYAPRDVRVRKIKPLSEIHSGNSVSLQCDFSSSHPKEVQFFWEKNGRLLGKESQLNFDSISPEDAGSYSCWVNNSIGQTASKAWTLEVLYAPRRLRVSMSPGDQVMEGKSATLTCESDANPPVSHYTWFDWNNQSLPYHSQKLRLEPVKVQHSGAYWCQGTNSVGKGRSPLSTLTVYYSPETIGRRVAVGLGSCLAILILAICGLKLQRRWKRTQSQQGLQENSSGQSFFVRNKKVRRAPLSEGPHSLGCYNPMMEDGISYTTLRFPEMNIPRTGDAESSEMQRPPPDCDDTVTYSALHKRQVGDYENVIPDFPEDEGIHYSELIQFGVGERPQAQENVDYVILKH
In words: Inhibition hFc tagged CD22 incubated for 4 hrs by ELISA.

The target of test [3] is B-cell receptor CD22 (Homo sapiens) (UniProt P20273). In words: Inhibition of hFc tagged CD22 (unknown origin) assessed as relative inhibitory potency incubated for 4 hrs by ELISA relative to 1,4-Bis-(2-aza-1-oxo-8-(sodium-(5-acetamido-3,5-dideoxy-D-glycero-alpha-D-galacto-non-2-ulopyranosyloxyonate))-5-thia-octyl)benzene.
Test [4] shares this target. In words: Inhibition of CD22 (unknown origin) in human Daudi cells assessed as relative inhibitory potency in presence of biotinylated dimeric 2-(78-biotinoylamino-1,4,7,10,13,16-hexaoxa-octadecyl)-1,4-bis(2-aza-l-oxo-8-(sodium(5-acetamido-3,5,9-trideoxy-9-(4-phenylbenzamido)-D-glycero-a-D-galacto-non-2-ulopyranosyloxyonate))-5-thia-octyl) benzene preincubated for 15 mins followed by probe addition incubated for 20 mins by flow cytometric analysis relative to 1,4-Bis-(2-aza-1-oxo-8-(sodium-(5-acetamido-3,5-dideoxy-D-glycero-alpha-D-galacto-non-2-ulopyranosyloxyonate))-5-thia-octyl)benzene. The format is cell-based. As to conditions: time 35.0 min.

With `CC(=O)N[C@H]1[C@H]([C@H](O)[C@H](O)CNC(=O)c2ccc(-c3ccccc3)cc2)O[C@@](OCCCSCCNC(=O)c2ccc(C(=O)NCCSCCCO[C@]3(C(=O)O)C[C@H](O)[C@@H](NC(C)=O)[C@H]([C@H](O)[C@H](O)CNC(=O)c4ccc(-c5ccccc5)cc4)O3)c(OCCOCCOCCOCCOCCOCCN)c2)(C(=O)O)C[C@@H]1O`, in test [1], the fold change (FC) came to 0.14.

Consider `CC(=O)N[C@H]1[C@H]([C@H](O)[C@H](O)CNC(=O)c2ccc(C3CCCCC3)cc2)O[C@@](OCCCSCCNC(=O)c2ccc(C(=O)NCCSCCCO[C@]3(C(=O)O)C[C@H](O)[C@@H](NC(C)=O)[C@H]([C@H](O)[C@H](O)CNC(=O)c4ccc(C5CCCCC5)cc4)O3)cc2)(C(=O)O)C[C@@H]1O`, for which the fold change (FC) in test [1] stood at 0.008; in test [2], 0.1.

Regarding `CC(=O)N[C@H]1[C@H]([C@H](O)[C@H](O)CNC(=O)c2ccc(-c3ccccc3)cc2)O[C@@](OCCCSCCNCc2ccc(CNCCSCCCO[C@]3(C(=O)O)C[C@H](O)[C@@H](NC(C)=O)[C@H]([C@H](O)[C@H](O)CNC(=O)c4ccc(-c5ccccc5)cc4)O3)cc2)(C(=O)O)C[C@@H]1O`, the fold change (FC) in test [1] amounted to 0.011; in test [2] it was 0.1.

For the compound `CC(=O)N[C@H]1[C@H]([C@H](O)[C@H](O)CNC(=O)c2ccc(-c3cccs3)s2)O[C@@](OCCCSCCNC(=O)c2ccc(C(=O)NCCSCCCO[C@]3(C(=O)O)C[C@H](O)[C@@H](NC(C)=O)[C@H]([C@H](O)[C@H](O)CNC(=O)c4ccc(-c5cccs5)s4)O3)cc2)(C(=O)O)C[C@@H]1O`, the fold change (FC) was 0.07 in test [1] and 4.5 in test [2].

As to `CC(=O)N[C@H]1[C@H]([C@H](O)[C@H](O)CNC(=O)c2ccc(-c3ccccc3)cc2)O[C@@](OCCCSCCNC(=O)c2ccc(C(=O)NCCSCCCO[C@]3(C(=O)O)C[C@H](O)[C@@H](NC(C)=O)[C@H]([C@H](O)[C@H](O)CNC(=O)c4ccc(-c5cccs5)cc4)O3)cc2)(C(=O)O)C[C@@H]1O`, the fold change (FC) stood at 3.7 in test [1] and 1.2 in test [2].

With `CC(=O)N[C@H]1[C@H]([C@H](O)[C@H](O)CNC(=O)c2ccc(-c3ccccc3)cc2)O[C@@](OCCCSCCNC(=O)c2ccc(C(=O)NCCSCCCO[C@]3(C(=O)O)C[C@H](NS(=O)(=O)O)[C@@H](NC(C)=O)[C@H]([C@H](O)[C@H](O)CNC(=O)c4ccc(-c5ccccc5)cc4)O3)cc2)(C(=O)O)C[C@@H]1NS(=O)(=O)O`, the fold change (FC) in test [1] stood at 138; in test [2], 65.

Turning to `CC(=O)N[C@H]1[C@H]([C@H](O)[C@H](O)CNC(=O)c2ccc(-c3ccccc3)cc2)O[C@@](OCc2cn(CCNC(=O)c3ccc(C(=O)NCCn4cc(CO[C@]5(C(=O)O)C[C@H](O)[C@@H](NC(C)=O)[C@H]([C@H](O)[C@H](O)CNC(=O)c6ccc(-c7ccccc7)cc6)O5)nn4)cc3)nn2)(C(=O)O)C[C@@H]1O`, the fold change (FC) in test [1] was determined as 0.0028; in test [2], 0.18.

On to `CC(=O)N[C@H]1[C@H]([C@H](O)[C@H](O)CNC(=O)c2ccc(-c3ccccc3)cc2)O[C@@](OCCC[S+]([O-])CCNC(=O)c2ccc(C(=O)NCC[S+]([O-])CCCO[C@]3(C(=O)O)C[C@H](O)[C@@H](NC(C)=O)[C@H]([C@H](O)[C@H](O)CNC(=O)c4ccc(-c5ccccc5)cc4)O3)cc2)(C(=O)O)C[C@@H]1O` (stereo not given in full), for which the fold change (FC) in test [1] turned out to be 0.013; in test [2], 0.49.

Consider `CC(=O)N[C@H]1[C@H]([C@H](O)[C@H](O)CNC(=O)c2ccc(-c3ccsc3)cc2)O[C@@](OCCCSCCNC(=O)c2ccc(C(=O)NCCSCCCO[C@]3(C(=O)O)C[C@H](O)[C@@H](NC(C)=O)[C@H]([C@H](O)[C@H](O)CNC(=O)c4ccc(-c5ccsc5)cc4)O3)cc2)(C(=O)O)C[C@@H]1O`, for which the fold change (FC) in test [1] stood at 0.71; in test [2], 1.6.

As to `CC(=O)N[C@H]1[C@H]([C@H](O)[C@H](O)CNC(=O)c2ccc(-c3ccccc3)cc2)O[C@@](OCCCSCCC(=O)Nc2ccc(NC(=O)CCSCCCO[C@]3(C(=O)O)C[C@H](O)[C@@H](NC(C)=O)[C@H]([C@H](O)[C@H](O)CNC(=O)c4ccc(-c5ccccc5)cc4)O3)cc2)(C(=O)O)C[C@@H]1O`, the fold change (FC) in test [1] worked out at 1.5; in test [2] it was 0.1.

With `CC(=O)N[C@H]1[C@H]([C@H](O)[C@H](O)CO)O[C@@](OCCCSCCNC(=O)c2ccc(C(=O)NCCSCCCO[C@]3(C(=O)O)C[C@H](O)[C@@H](NC(C)=O)[C@H]([C@H](O)[C@H](O)CO)O3)cc2)(C(=O)O)C[C@@H]1O`, the fold change (FC) is 0.00034 in test [1] and 0.01 in test [2].

For `CC(=O)N[C@H]1[C@H]([C@H](O)[C@H](O)CNC(=O)c2ccc(-c3ccccc3)cc2)O[C@](C(=O)O)(n2cc(CCCCNC(=O)c3ccc(C(=O)NCCCCc4cn([C@]5(C(=O)O)C[C@H](O)[C@@H](NC(C)=O)[C@H]([C@H](O)[C@H](O)CNC(=O)c6ccc(-c7ccccc7)cc6)O5)nn4)cc3)nn2)C[C@@H]1O`, the fold change (FC) is < 0.0001 in test [1] and 0.86 in test [2].

`CC(=O)N[C@H]1[C@H]([C@H](O)[C@H](O)CNC(=O)c2ccc(-c3ccccc3)cc2)O[C@@](OCCCSCCNC(=O)c2ccccc2)(C(=O)O)C[C@@H]1O` came in with an IC50 on B-cell receptor CD22 of 320 pM. Moreover, the fold change (FC) in test [3] was 128.

Turning to `CC(=O)N[C@H]1[C@H]([C@H](O)[C@H](O)CNC(=O)c2ccc(-c3ccccc3Cl)cc2)O[C@@](OCCCSCCNC(=O)c2ccc(C(=O)NCCSCCCO[C@]3(C(=O)O)C[C@H](O)[C@@H](NC(C)=O)[C@H]([C@H](O)[C@H](O)CNC(=O)c4ccc(-c5ccccc5Cl)cc4)O3)cc2)(C(=O)O)C[C@@H]1O`, the fold change (FC) in test [1] worked out at 1.3; in test [2], 5.3.

In the case of `CC(=O)N[C@H]1[C@H]([C@H](O)[C@H](O)CNC(=O)c2ccc(-c3ccccc3)cc2)O[C@@](OCCCSCCNC(=O)c2ccc(C(=O)NCCSCCCO[C@]3(C(=O)O)C[C@H](O)[C@@H](NC(C)=O)[C@H]([C@H](O)[C@H](O)CNC(=O)c4ccc(-c5ccccc5)cc4)O3)c(Br)c2)(C(=O)O)C[C@@H]1O`, the values for the fold change (FC) in test [1] and in test [2] were 5.9 and 0.77, respectively.

For `CC(=O)N[C@H]1[C@H]([C@H](O)[C@H](O)CNC(=O)c2ccc(-c3ccccc3)cc2)O[C@@](OCCCSCCNC(=O)c2ccc(C(=O)NCCSCCCO[C@]3(C(=O)O)C[C@H](NS(=O)(=O)O)[C@@H](NC(C)=O)[C@H]([C@H](O)[C@H](O)CNC(=O)c4ccc(-c5ccccc5)cc4)O3)c(OCCOCCOCCOCCOCCOCCN)c2)(C(=O)O)C[C@@H]1NS(=O)(=O)O`, the fold change (FC) in test [1] worked out at 34.

Take `CC(=O)N[C@H]1[C@H]([C@H](O)[C@H](O)CNC(=O)c2ccc(-c3ccccc3)cc2)O[C@@](OCCCSCCNC(=O)c2cccc(C(=O)NCCSCCCO[C@]3(C(=O)O)C[C@H](O)[C@@H](NC(C)=O)[C@H]([C@H](O)[C@H](O)CNC(=O)c4ccc(-c5ccccc5)cc4)O3)c2)(C(=O)O)C[C@@H]1O`: the fold change (FC) in test [1] was determined as 0.11; in test [2], 0.79.

On to `CC(=O)N[C@H]1[C@H]([C@H](O)[C@H](O)CNC(=O)c2ccc(-c3ccccc3)cc2)O[C@@](OCCCSCCNC(=O)c2ccc(C(=O)NCCSCCCO[C@]3(C(=O)O)C[C@H](O)[C@@H](NC(C)=O)[C@H]([C@H](O)[C@H](O)CNC(=O)c4ccc(C5CCCCC5)cc4)O3)cc2)(C(=O)O)C[C@@H]1O`, for which the fold change (FC) in test [4] was 185.

Take `CC(=O)N[C@H]1[C@H]([C@H](O)[C@H](O)CNC(=O)c2ccc(-c3ccccc3)cc2)O[C@@](OCCCSCCNC(=O)c2ccc(-c3ccc(C(=O)NCCSCCCO[C@]4(C(=O)O)C[C@H](O)[C@@H](NC(C)=O)[C@H]([C@H](O)[C@H](O)CNC(=O)c5ccc(-c6ccccc6)cc5)O4)cc3)cc2)(C(=O)O)C[C@@H]1O`: the fold change (FC) is 0.01 in test [1] and 0.17 in test [2].
